SMILES strings stand for the structures.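 These data come from cells grown in 96-well plates and exposed to compound for 48 hours at five concentrations. GI50: concentration for 50% inhibition of growth.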 The source made the active and inactive calls. Rule as the data show it: active = GI50 up to about 1.1 µM and inactive = higher.

Test systems include UO-31; TK-10; OVCAR-8; OVCAR-3; HOP-62; CCRF-CEM; IGROV-1; K562; LOX IMVI; A498; EKVX; NCI-H460; HT-29; HCC 2998; SK-MEL-5; PC-3; SR; DU-145; MDA-MB-231.
Common to all, as to assay: DTP human tumour cell line panel, 48 h

What is called GI50 is the concentration that inhibits growth by half. In the case of `CC(=O)NNc1ncc(C(=O)/C=C/c2ccccc2C)s1`, the GI50 in the assay on UO-31, with TK-10, in the assay with OVCAR-8, with OVCAR-3, in the assay with HOP-62 and in the assay on CCRF-CEM was > 100 µM (inactive) throughout. The GI50 in the assay on IGROV-1, with K562, with LOX IMVI, in the assay on A498, in the assay on EKVX and in the assay on NCI-H460 was > 100 µM (inactive) each time. In addition, the GI50 in the assay on HT-29, with HCC 2998 and with SK-MEL-5 was > 100 µM (inactive) in each case.

For the compound `C1=C[C@@H]2c3ccc4cnccc4c3NC[C@@H]2C1`, the GI50 was > 100 µM (inactive) with PC-3; 74.3 µM (inactive) in the assay with UO-31; > 100 µM (inactive) in the assay on TK-10; > 100 µM (inactive) with OVCAR-8; > 100 µM (inactive) in the assay with OVCAR-3; > 100 µM (inactive) with HOP-62. The GI50 is > 100 µM (inactive) with CCRF-CEM; > 100 µM (inactive) with SR; > 100 µM (inactive) in the assay on IGROV-1; > 100 µM (inactive) in the assay with K562; 33.6 µM (inactive) in the assay on A498; 16.8 µM (inactive) with EKVX. The GI50 with NCI-H460, in the assay on DU-145, in the assay on HCC 2998 and in the assay on SK-MEL-5 was > 100 µM (inactive) each time.

For `CC(C)(C)OC(=O)Nc1cc(-c2ccccc2)co1`, the GI50 in the assay on PC-3 was 50.1 µM (inactive); in the assay on UO-31, > 100 µM (inactive); with TK-10, > 100 µM (inactive); with OVCAR-8, > 100 µM (inactive); with OVCAR-3 it was 94.2 µM (inactive); in the assay with HOP-62, > 100 µM (inactive). Also, the GI50 with CCRF-CEM was 51.8 µM (inactive); with IGROV-1, 87.5 µM (inactive); in the assay on MDA-MB-231, 68.7 µM (inactive); in the assay on K562, 67 µM (inactive); in the assay with LOX IMVI, > 100 µM (inactive); with A498, > 100 µM (inactive). The GI50 with EKVX is > 100 µM (inactive); with DU-145 it was > 100 µM (inactive); in the assay on HCC 2998, > 100 µM (inactive); with SK-MEL-5, 96.8 µM (inactive).

Take `CC(=O)/N=C1\NC(=O)/C(=C/c2ccccc2Cl)N1C`: the GI50 in the assay with PC-3, in the assay on UO-31, with TK-10, with OVCAR-8, in the assay on OVCAR-3 and in the assay on HOP-62 was > 100 µM (inactive) in each case. Also, the GI50 in the assay with CCRF-CEM is > 100 µM (inactive); in the assay with IGROV-1 it was > 100 µM (inactive); in the assay with MDA-MB-231 it was > 100 µM (inactive); in the assay on LOX IMVI, > 100 µM (inactive); in the assay on EKVX, 26.4 µM (inactive); with NCI-H460, > 100 µM (inactive). For the same compound, the GI50 in the assay on HT-29, with DU-145, with HCC 2998 and with SK-MEL-5 was > 100 µM (inactive) throughout.

For the compound `CCOC(=O)/C=C1/Nc2cc(F)c(F)cc2NC1=O`, the GI50 with PC-3, in the assay with UO-31, in the assay with TK-10, in the assay on OVCAR-8, in the assay with OVCAR-3 and in the assay with HOP-62 was > 100 µM (inactive) throughout. Also, the GI50 in the assay on CCRF-CEM, with MDA-MB-231, with K562, with LOX IMVI, in the assay on EKVX and with NCI-H460 was > 100 µM (inactive) in each case. Further, the GI50 in the assay with HT-29, in the assay with DU-145, with HCC 2998 and with SK-MEL-5 was > 100 µM (inactive) in each case.

As to `CCOC(=O)c1c(SCC#N)n(-c2ccccc2)c(=S)n(-c2ccccc2)c1=O`, the GI50 is 18.8 µM (inactive) with PC-3; 37.5 µM (inactive) in the assay with UO-31; > 100 µM (inactive) in the assay on TK-10; 38.5 µM (inactive) in the assay with OVCAR-8; 33.7 µM (inactive) in the assay on OVCAR-3; 88.1 µM (inactive) in the assay on HOP-62. For the same compound, the GI50 is 13.5 µM (inactive) in the assay with CCRF-CEM; 44 µM (inactive) in the assay on SR; 30.8 µM (inactive) in the assay with IGROV-1; 18.2 µM (inactive) in the assay with K562; 14.7 µM (inactive) with LOX IMVI; 36.3 µM (inactive) in the assay with EKVX. Besides, the GI50 in the assay with NCI-H460 is 34.2 µM (inactive); in the assay with HT-29 it was 41.2 µM (inactive); in the assay with DU-145 it was > 100 µM (inactive); with SK-MEL-5 it was 27 µM (inactive).

With `CCN(CC)C(=O)Cn1c2c(c3ccccc31)CCCC2`, the GI50 with PC-3 is 68.5 µM (inactive); in the assay with UO-31 it was 23.2 µM (inactive); with TK-10, > 100 µM (inactive); in the assay with OVCAR-8, > 100 µM (inactive); in the assay on OVCAR-3 it was > 10 µM (inactive); with HOP-62, > 100 µM (inactive). Further, the GI50 with CCRF-CEM was 89.3 µM (inactive); with SR, 49.9 µM (inactive); with IGROV-1 it was > 100 µM (inactive); with K562 it was 68.4 µM (inactive); with LOX IMVI it was > 100 µM (inactive); in the assay with A498, > 100 µM (inactive). Also, the GI50 in the assay with EKVX was > 100 µM (inactive); in the assay with NCI-H460, > 100 µM (inactive); in the assay on HT-29 it was > 100 µM (inactive); in the assay with HCC 2998 it was > 100 µM (inactive); in the assay with SK-MEL-5, 64 µM (inactive).

For the compound `CC(=O)c1ccc(-c2oc(-c3ccccc3)cc2-c2ccc3c(c2)OCO3)s1`, the GI50 is > 100 µM (inactive) in the assay with UO-31; > 100 µM (inactive) in the assay with TK-10; > 100 µM (inactive) with OVCAR-8; > 100 µM (inactive) in the assay on OVCAR-3; > 100 µM (inactive) in the assay with HOP-62; 0.0313 µM (active) in the assay with CCRF-CEM. Also, the GI50 with SR is > 100 µM (inactive); in the assay on IGROV-1 it was > 100 µM (inactive); in the assay on K562, > 100 µM (inactive); in the assay on A498, > 100 µM (inactive); in the assay with EKVX, > 100 µM (inactive); in the assay with NCI-H460, 68.5 µM (inactive). Further, the GI50 in the assay on HT-29, in the assay on DU-145, with HCC 2998 and in the assay with SK-MEL-5 was > 100 µM (inactive) throughout.

`Cc1ccccc1[P+](C)(c1ccccc1C)c1ccccc1C`: the GI50 is 14.3 µM (inactive) with PC-3; 17.7 µM (inactive) with UO-31; 8.26 µM (inactive) in the assay with TK-10; 15 µM (inactive) with OVCAR-8; 7.94 µM (inactive) with OVCAR-3; 23.9 µM (inactive) in the assay with HOP-62. Besides, the GI50 is 0.0333 µM (active) with CCRF-CEM; 14.9 µM (inactive) in the assay with IGROV-1; 12.6 µM (inactive) with MDA-MB-231; 14.1 µM (inactive) in the assay on LOX IMVI; 18.5 µM (inactive) with A498; 5.07 µM (inactive) with EKVX. The GI50 in the assay with NCI-H460 is 20 µM (inactive); in the assay with HT-29, 5.85 µM (inactive); in the assay with DU-145, 29.2 µM (inactive); in the assay on HCC 2998, 2.77 µM (inactive); in the assay on SK-MEL-5 it was 4.84 µM (inactive).

Consider `O=c1oc(-c2ccccc2)c(-c2ccccc2)n1-c1ccc(Br)cc1`, for which the GI50 in the assay with PC-3 is > 100 µM (inactive); in the assay on UO-31 it was > 100 µM (inactive); in the assay with TK-10, 31.8 µM (inactive); in the assay with OVCAR-8, 29.2 µM (inactive); in the assay with OVCAR-3 it was 47.5 µM (inactive); with HOP-62, 33.2 µM (inactive). Further, the GI50 is 93.8 µM (inactive) with CCRF-CEM; 29.6 µM (inactive) with IGROV-1; 27.7 µM (inactive) with MDA-MB-231; 32.4 µM (inactive) in the assay with LOX IMVI; 26.2 µM (inactive) in the assay on A498; 54.1 µM (inactive) with EKVX. Moreover, the GI50 is 62.1 µM (inactive) in the assay on NCI-H460, > 100 µM (inactive) with HT-29, 21 µM (inactive) in the assay with DU-145 and 76.6 µM (inactive) with SK-MEL-5.

`COC(=O)[C@@]12CC3CN(Cc4c1[nH]c1ccccc41)C2CC3=O`: the GI50 in the assay with PC-3, in the assay on TK-10, with OVCAR-8, with OVCAR-3, in the assay with HOP-62 and in the assay with CCRF-CEM was > 100 µM (inactive) throughout. Further, the GI50 in the assay on IGROV-1, in the assay on MDA-MB-231, with K562, in the assay with LOX IMVI, in the assay with EKVX and in the assay with NCI-H460 was > 100 µM (inactive) in each case. Further, the GI50 in the assay with HT-29, in the assay with DU-145 and in the assay with HCC 2998 was > 100 µM (inactive) in each case.

Consider `NC(Cc1ccc(S(=O)(=O)O)cc1)C(=O)NC(Cc1ccc(S(=O)(=O)O)cc1)C(=O)O` (centres undefined), for which the GI50 with PC-3, with UO-31, in the assay on TK-10, with OVCAR-8, in the assay with OVCAR-3 and with HOP-62 was > 100 µM (inactive) in each case. The GI50 is > 100 µM (inactive) in the assay with CCRF-CEM; > 100 µM (inactive) with IGROV-1; > 100 µM (inactive) in the assay with MDA-MB-231; 0.0475 µM (active) with K562; > 100 µM (inactive) in the assay on LOX IMVI; > 100 µM (inactive) with A498. Moreover, the GI50 in the assay with EKVX, with NCI-H460, in the assay on HT-29, in the assay with DU-145, with HCC 2998 and with SK-MEL-5 was > 100 µM (inactive) each time.

Source of the values: ChEMBL document CHEMBL1201862, “PubChem BioAssay data set” (2004).
